The values that follow come from patent publication US20230210896A9, “METHOD FOR T CELL ACTIVATION FOR CANCER TREATMENT” (GOOD T CELLS, INC., priority 2019, published 2023).

In the experiment the test system is CD8-expressing T cells. Put plainly: ELISPOT of IFN-γ secretion in T cells activated by dendritic cells loaded with LMP2a epitope groups. Format: cell-based, human. Conditions: DC:CD8 T cells 1:10, 18 hours.
[1] abbreviates: healthy human donor N5 (N5-1 and N5-2, repeated twice), FIGS. 1 and 2.
Where [2] appears, read: healthy human donor N15, FIG. 4.

Consider “3 (MGAGPPSPGGDPDGD; LMP2a epitope) [compound 3]”, for which the “expression of IFN-γ in T cells (ELISPOT)” value reads like this: under setting [1], “increased expression of IFN-γ”; (healthy human donor N9, FIG. 3) “increased expression of IFN-γ”; under setting [2], “increased expression of IFN-γ”.
Turning to “5 (GGDPDGDDGGNNSQY; LMP2a epitope) [compound 5]”, the “expression of IFN-γ in T cells (ELISPOT)” value under setting [2] is listed as “increased expression of IFN-γ”.
For “8 (SQYPSASGSYGNTPT; LMP2a epitope) [compound 8]”, the “expression of IFN-γ in T cells (ELISPOT)” value reads like this: (healthy human donor N9, FIG. 3) “increased expression of IFN-γ”; under setting [2], “increased expression of IFN-γ”.
Regarding “9 (SASGSYGNTPTPPND; LMP2a epitope) [compound 9]”, the “expression of IFN-γ in T cells (ELISPOT)” value is on record as “increased expression of IFN-γ” under setting [1] and “increased expression of IFN-γ” under setting [2].
As for “12 (PNDEERESNEEPPPP; LMP2a epitope) [compound 12]”, the “expression of IFN-γ in T cells (ELISPOT)” value under setting [1] was “increased expression of IFN-γ”.
As for “15 (PPPYEDLDWGNGDRH; LMP2a epitope) [compound 15]”, the “expression of IFN-γ in T cells (ELISPOT)” value by setting is: under setting [1], “increased expression of IFN-γ”; (healthy human donor N9, FIG. 3) “increased expression of IFN-γ”; under setting [2], “increased expression of IFN-γ”.
Consider “16 (EDLDWGNGDRHSDYQ; LMP2a epitope) [compound 16]”, for which, for the setting “healthy human donor N9, FIG. 3”, the “expression of IFN-γ in T cells (ELISPOT)” value was “increased expression of IFN-γ”.
For the substance “18 (DRHSDYQPLGNQDPS; LMP2a epitope) [compound 18]”, the “expression of IFN-γ in T cells (ELISPOT)” value under setting [1] is “increased expression of IFN-γ”.
Regarding “19 (DYQPLGNQDPSLYLG; LMP2a epitope) [compound 19]”, the “expression of IFN-γ in T cells (ELISPOT)” value (healthy human donor N9, FIG. 3) is given as “increased expression of IFN-γ”.
In the case of “20 (LGNQDPSLYLGLQHD; LMP2a epitope) [compound 20]”, the “expression of IFN-γ in T cells (ELISPOT)” value (healthy human donor N9, FIG. 3) is given as “increased expression of IFN-γ”.
